From patent publication US11472778B2, “Hepatitis C virus NS3/4A protease inhibitors” (priority 2017, dated 2022)
Where two headings read alike, the source gives them in different places.

Tests used:
[1] = test system: wild-type HCV replicon in Huh7 cells; test: Cell-based drug susceptibility (replicon) assay, wild-type; settings: Hepatitis C virus, read-out: Replicon EC50 (nM) WT
Experimental: (§1) Mutations (R155K, A516T, D168A and D168V) were constructed by site-directed mutagenesis using a Con1 (genotype 1b) luciferase reporter replicon containing the H77 (genotype 1a) NS3 sequence.
(§2) Replicon RNA of each protease variant was introduced into Huh7 cells by electroporation. Replication was then assessed in the presence of increasing concentrations of protease inhibitors by measuring luciferase activity (relative light units) 96 h after electroporation.
(§3) Mutations (R155K, D168A and A156T) were constructed by site-directed mutagenesis using a Con1 (genotype 1b) luciferase reporter replicon containing the H77 (genotype 1a) NS3 sequence.^6 Replicon RNA of each protease variant was introduced into Huh7 cells by electroporation. Replication was then assessed in the presence of increasing concentrations of protease inhibitors by measuring luciferase activity (relative light units) 96 h after electroporation.

[2] = test system: HCV replicon A156T variant in Huh7 cells; test: microbe, parasite or virus in culture; type: cell-based, Hepatitis C virus; settings: for EC50: Hepatitis C virus; for Replicon EC50 (Fold change) A156T: Table 4, relative to WT replicon
Experimental: as §1, §2, §3

[3] = test system: HCV replicon D168A variant in Huh7 cells; test: microbe, parasite or virus in culture; type: cell-based, Hepatitis C virus; settings: for EC50: Hepatitis C virus; for Replicon EC50 (Fold change) D168A: Table 4, relative to WT replicon
Experimental: as §1, §2, §3

[4] = test system: HCV replicon R155K variant in Huh7 cells; test: microbe, parasite or virus in culture; type: cell-based, Hepatitis C virus; settings: for EC50: Hepatitis C virus; for Replicon EC50 (Fold change) R155K: Table 4, relative to WT replicon
Experimental: as §1, §2, §3

[5] = test system: HCV replicon D168V variant in Huh7 cells; test: microbe, parasite or virus in culture; type: cell-based, Hepatitis C virus; settings: for EC50: Hepatitis C virus; for Replicon EC50 (Fold change) D168V: Table 4, relative to WT replicon
Experimental: as §1
Replicon RNA of each protease variant was introduced into Huh7 cells by electroporation. Replication was then assessed in the presence of increasing concentrations of protease inhibitors by measuring luciferase activity (relative light units) 96 h after electroporation. […]

GT3a NS3/4A protease = molecular target: T1, GT3a NS3/4A protease (Hepatitis C virus genotype 3a, UniProt Q81495); test: biochemical; settings: for Ki (Fold change) GT3a NS3/4A Protease: Table 3, Ki GT3a relative to GT1a WT
T1 construct: drug-resistant variant D168A, and GT3a NS3/4A protease; made in house; host or cells: Escherichia coli BL21(DE3)
Experimental: (§4) For each assay, 2 nM of NS3/4A protease (GT1, D168A and GT3) was pre-incubated at room temperature for 1 h with increasing concentration of inhibitors in assay buffer [50 mM Tris, 5% glycerol, 10 mM DTT, 0.6 mM LDAO, and 4% dimethyl sulfoxide]. Inhibition assays were performed in nonbinding surface 96-well black half-area plates (Corning) in a reaction volume of 60 μt. […] Three independent data sets were collected for each inhibitor with each protease construct.

[6] = molecular target: T2, wild-type GT1a NS3/4A protease (UniProt P27958, C1185S, species not given); type: biochemical, Hepatitis C virus; settings: read-out: Ki (nM) GT1a WT NS3/4A Protease
T2 construct: Ki (nM) GT1a WT NS3/4A Protease
Experimental: as §4
as §4, with “(GT1a” for “(GT1, D168A”, “D168A)” for “GT3)”, “(50” for “[50”, “sulfoxide, pH 7.5).” for “sulfoxide].”, “non-binding” for “nonbinding”, “μL.” for “μt.”
(§5) For each assay, 2 nM of NS3/4A protease (GT1a, R155K and D168A) was pre-incubated at room temperature for 1 h with increasing concentration of inhibitors in assay buffer (50 mM Tris, 5% glycerol, 10 mM DTT, 0.6 mM LDAO, and 4% dimethyl sulfoxide, pH 7.5). Inhibition assays were performed in non-binding surface 96-well black half-area plates (Corning) in a reaction volume of 60 μL. […] Three independent data sets were collected for each inhibitor with each protease construct. […] Gibbs free energy of binding was calculated using the following equation: ΔG=RTlnKi

[7] = molecular target: T3, GT1a D168A NS3/4A protease (UniProt P27958, C1185S/D1194A, species not given); type: biochemical, Hepatitis C virus; settings: read-out: Ki (nM) GT1a D168A NS3/4A Protease
T3 construct: Ki (nM) GT1a D168A NS3/4A Protease
Experimental: as §4
(§6) For each assay, 2 nM of NS3/4A protease (GT1a and D168A) was pre-incubated at room temperature for 1 h with increasing concentration of inhibitors in assay buffer (50 mM Tris, 5% glycerol, 10 mM DTT, 0.6 mM LDAO, and 4% dimethyl sulfoxide, pH 7.5). Inhibition assays were performed in non-binding surface 96-well black half-area plates (Corning) in a reaction volume of 60 μL. […] Three independent data sets were collected for each inhibitor with each protease construct.
as §5

[8] = molecular target: GT1a D168A NS3/4A protease; type: biochemical, Hepatitis C virus; settings: Table 3; Ki D168A relative to GT1a WT
Experimental: as §4, §6, §5

[9] = Huh-7, 96 h, Table 2, Huh7 cells, luciferase 96 h
[10] = Huh-7, 96 h, read-out: Replicon EC50 (nM) A156T, Table 2, Huh7 cells, luciferase 96 h
[11] = Huh-7, read-out: Replicon EC50 (nM) A156T, Table 4
[12] = Huh-7, 96 h, read-out: Replicon EC50 (nM) D168A, Table 2, Huh7 cells, luciferase 96 h
[13] = Huh-7, read-out: Replicon EC50 (nM) D168A, Table 4
[14] = Huh-7, 96 h, read-out: Replicon EC50 (nM) R155K, Table 2, Huh7 cells, luciferase 96 h
[15] = Huh-7, read-out: Replicon EC50 (nM) R155K, Table 4
[16] = Huh-7, 96 h, read-out: Replicon EC50 (nM) D168V, Table 2, Huh7 cells, luciferase 96 h
[17] = Huh-7, read-out: Replicon EC50 (nM) D168V, Table 4

T1 sequence (Q81495 1033-1214): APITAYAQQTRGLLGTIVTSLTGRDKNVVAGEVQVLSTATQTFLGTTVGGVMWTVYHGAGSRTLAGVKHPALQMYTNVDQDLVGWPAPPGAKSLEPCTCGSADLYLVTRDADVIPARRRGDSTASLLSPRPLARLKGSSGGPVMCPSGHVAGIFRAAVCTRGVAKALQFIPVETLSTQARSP

SMILES	EC50 [1, 9] [nM]	EC50 ([1]; Huh-7, Table 4) [nM]	EC50 [2, 10] [nM]	EC50 [2, 11] [nM]	Replicon EC50 (Fold change) A156T [2]	EC50 [3, 12] [nM]	EC50 [3, 13] [nM]	Replicon EC50 (Fold change) D168A [3]	EC50 [4, 14] [nM]	EC50 [4, 15] [nM]	Replicon EC50 (Fold change) R155K [4]	EC50 [5, 16] [nM]	EC50 [5, 17] [nM]	Replicon EC50 (Fold change) D168V [5]	Ki (GT3a NS3/4A protease) [nM]	Ki (Fold change) GT3a NS3/4A Protease (GT3a NS3/4A protease)	Ki ([6]; Table 1) [nM]	Ki ([6]; Table 3) [nM]	Ki ([7]; Table 1) [nM]	Ki ([7]; Table 3) [nM]	further results
COc1ccc2nc(Cl)c(O[C@@H]3C[C@H]4C(=O)N[C@]5(C(=O)NS(=O)(=O)C6CC6)C[C@H]5/C=C\CCCCC[C@H](NC(=O)OC5CCCC5)C(=O)N4C3)nc2c1 [Compound 22c, Cyclopentyl ((2R,6S,13aS,14aR,16aS,Z)-2-((3-chloro-7-methoxyquinoxalin-2-yl)oxy)-14a-((cyclopropylsulfonyl)carbamoyl)-5,16-dioxo-1,2,3,5,6,7,8,9,10,11,13a,14,14a,15,16,16a-hexadecahydrocyclopropa[e]pyrrolo[1,2-a][1,4]diazacyclopentadecin-6-yl)carbamate]	0.15	0.15	3.55	3.55	(24) fold	1.32	1.32	(9) fold	0.59	0.59	(4) fold	1.55	1.55	(10) fold	85.6	(175) fold	0.49	0.49	30.6	30.6 ± 2.6	Ki (Fold change) GT1a D168A NS3/4A Protease [8]: (62) fold
COc1ccc2nc(C(F)(F)F)c(O[C@@H]3C[C@H]4C(=O)N[C@]5(C(=O)NS(=O)(=O)C6CC6)C[C@H]5/C=C\CCCCC[C@H](NC(=O)OC5CCCC5)C(=O)N4C3)nc2c1 [Compound 22d, Cyclopentyl ((2R,6S,13aS,14aR,16aS,Z)-14a-((cyclopropylsulfonyl)carbamoyl)-2-((7-methoxy-3-(trifluoromethyl)quinoxalin-2-yl)oxy)-5,16-dioxo-1,2,3,5,6,7,8,9,10,11,13a,14,14a,15,16,16a-hexadecahydrocyclopropa[e]pyrrolo[1,2-a][1,4]diazacyclopentadecin-6-yl)carbamate]	4.86	4.86	117	117	(24) fold	15.1	15.1	(3) fold	7.97	7.97	(2) fold	24	24	(5) fold	757	(100) fold	7.55	7.55	115	115 ± 12	Ki (Fold change) GT1a D168A NS3/4A Protease [8]: (15) fold
CCc1nc2ccc(OC)cc2nc1O[C@@H]1C[C@H]2C(=O)N[C@]3(C(=O)NS(=O)(=O)C4(C)CC4)C[C@H]3/C=C\CCCCC[C@H](NC(=O)OC3CCCC3)C(=O)N2C1 [Compound 23a, Cyclopentyl ((2R,6S,13aS,14aR,16aS,Z)-2-((3-ethyl-7-methoxyquinoxalin-2-yl)oxy)-14a-(((1-methylcyclopropyl)sulfonyl)carbamoyl)-5,16-dioxo-1,2,3,5,6,7,8,9,10,11,13a,14,14a,15,16,16a-hexadecahydrocyclopropa[e]pyrrolo[1,2-a][1,4]diazacyclopentadecin-6-yl)carbamate]	0.16	0.16	10.6	10.6	(66) fold	3.45	3.45	(22) fold	2.07	2.07	(13) fold	7.08	7.08	(44) fold	186	(136) fold	1.37	1.37	55.2	55.2 ± 5.3	Ki (Fold change) GT1a D168A NS3/4A Protease [8]: (40) fold
COc1ccc2nc(Cl)c(O[C@@H]3C[C@H]4C(=O)N[C@]5(C(=O)NS(=O)(=O)C6(C)CC6)C[C@H]5/C=C\CCCCC[C@H](NC(=O)OC5CCCC5)C(=O)N4C3)nc2c1 [Compound 23c, Cyclopentyl ((2R,6S,13aS,14aR,16aS,Z)-2-((3-chloro-7-methoxyquinoxalin-2-yl)oxy)-14a-(((1-methylcyclopropyl)sulfonyl)carbamoyl)-5,16-dioxo-1,2,3,5,6,7,8,9,10,11,13a,14,14a,15,16,16a-hexadecahydrocyclopropa[e]pyrrolo[1,2-a][1,4]diazacyclopentadecin-6-yl)carbamate]	0.15	0.15	4.32	4.32	(29) fold	0.97	0.97	(6) fold	0.56	0.56	(4) fold	1.09	1.09	(7) fold	61	(139) fold	0.44	0.44	25.7	25.7 ± 1.8	Ki (Fold change) GT1a D168A NS3/4A Protease [8]: (58) fold
COc1ccc2nc(C(F)(F)F)c(O[C@@H]3C[C@H]4C(=O)N[C@]5(C(=O)NS(=O)(=O)C6(C)CC6)C[C@H]5/C=C\CCCCC[C@H](NC(=O)OC5CCCC5)C(=O)N4C3)nc2c1 [Compound 23d, Cyclopentyl ((2R,6S,13aS,14aR,16aS,Z)-2-((7-methoxy-3-(trifluoromethyl)quinoxalin-2-yl)oxy)-14a-(((1-methylcyclopropyl)sulfonyl)carbamoyl)-5,16-dioxo-1,2,3,5,6,7,8,9,10,11,13a,14,14a,15,16,16a-hexadecahydrocyclopropa[e]pyrrolo[1,2-a][1,4]diazacyclopentadecin-6-yl)carbamate]	4.04	4.04	75.9	75.9	(19) fold	8.46	8.46	(2) fold	6.9	6.9	(2) fold	11.4	11.4	(3) fold	433	(53) fold	8.14	8.14	110	110 ± 14	Ki (Fold change) GT1a D168A NS3/4A Protease [8]: (14) fold
